{
  "source": "patent EP4427758A1",
  "about": "“NEW SYNERGISTIC ANTI-INFLAMMATORY, ANTIOXIDANT AND ANTIBACTERIAL ASSOCIATION” (NOOS S.r.l., priority 2023, dated 2024)",
  "key": {"[1]": {"assay": "NBT assay of antioxidant activity (superoxide scavenging)", "type": "biochemical", "settings": "NBT Test (O2^-•); read-out: Scavenging activity of the free radicals IC50", "quoted_text": "For the inactivation of bacteria by heat, one started at a concentration of 4×10^9 CFU/mL. The bacteria were then centrifuged at 4000 rpm for 10 minutes, the supernatant discarded and replaced with 1 ml of 0.9% NaCl saline solution. The heat inactivation occurred at the temperature of 85°C for 15 minutes.\nNBT assay (nitrobluetetrazolium) evaluates the capability of locking the formation of the superoxide radical ^·O2^-; the more ^·O2^- is produced, the more NBT is reduced in formazan. The capability of molecules and compounds to inhibit the NBT reduction by ^·O2^- in presence of β-nicotinammide adenin dinucleotide (β-NADH) and phenazinamethosulfate (PM) is then tested.\nThe spectrophometric reading was performed by kinetics, by measuring the OD values (λmax 560 nm) immediately and after 15 sec. The absorbance variation was used to calculate the inhibition percentage with respect to the control (solution of EtOH and of the solvent in which the different samples are dissolved).\nTo this purpose, on previously heat inactivated mixtures of bacteria, 8 serial dilutions were performed according to the scheme reported in figure 1; 20 µL of each dilution were then used in all assays of antioxidant activity according to the protocol indications."}, "[2]": {"system": "Haemophilus influenzae DSM 4690", "assay": "MIC determination by plate microdilution", "type": "cell-based", "settings": "DSM4690, H. influenzae, 24 hours at 37°C, anaerobiosis", "protocol": "(§1) The supernatant from Streptococcus salivarius K12 was used as reference. To this purpose, the Minimum Inhibitory Concentration (MIC) was evaluated. The pathogen microorganisms were the following ones: Staphylococcus aureus NCTC 6571, Streptococcus pyogenes LMG 21599, Streptococcus pneumoniae DSM 20566, Moraxella chatarralis DSM 9143, Haemophilus influenzae DSM 4690.\n(§2) L. reuteri LMG P-27481 and S. salivarius K12 were subcultivated on agar plates from cryopreserved cultures. All pathogens, except for H. influenzae DSM 4690, were cultivated on agar BHI (Brain Heart Infusion, Oxoid). The subculture of H. influenzae DSM 4690 requested the presence of traces of lysed red blood cells in the medium.\n(§3) In short, the supernatants were obtained for centrifugation of liquid cultures of L. reuteri LMG P27481 and S. salivarius K12, sterilized by filtration. The aliquots were diluted in series for determining the vital count. The supernatants were diluted in series from 100% to 0.19% (v:v).\n(§4) The pathogen strains were dosed optically by using the spectrophotometer at OD600 between 0.08-0.100 and diluted 100 times in Schaedler broth or sterile supernatants (to obtain the concentration of 100%).\n(§5) All samples were incubated for 24 hours at 37°C under aerobic conditions for all strains except for H. influenzae DSM 4690 which required anaerobiosis conditions.\n(§6) Moreover, a control with serial dilutions of DMSO was performed in order to exclude that the presence of this diluent could exert an inhibitory effect on the pathogens."}, "[3]": {"system": "Moraxella chatarralis DSM 9143", "assay": "MIC determination by plate microdilution", "type": "cell-based", "settings": "DSM9143, M. chatarralis, 24 hours at 37°C", "protocol": "as §1, §2, §3, §4, §5, §6"}, "[4]": {"system": "Staphylococcus aureus NCTC 6571", "assay": "MIC determination by plate microdilution", "type": "cell-based", "settings": "NCTC6571, S. aureus, 24 hours at 37°C", "protocol": "as §1, §2, §3, §4, §5, §6"}, "[5]": {"system": "Streptococcus pneumoniae DSM 20566", "assay": "MIC determination by plate microdilution", "type": "cell-based", "settings": "DSM20566, S. pneumoniae, 24 hours at 37°C", "protocol": "as §1, §2, §3, §4, §5, §6"}, "[6]": {"system": "Streptococcus pyogenes LMG 21599", "assay": "MIC determination by plate microdilution", "type": "cell-based", "settings": "LMG21599, S. pyogenes, 24 hours at 37°C", "protocol": "as §1, §2, §3, §4, §5, §6"}, "all tested pathogens": {"system": "all tested pathogens", "assay": "MIC determination, summary over all tested pathogens", "type": "cell-based", "settings": "range over all tested pathogens", "protocol": "as §1, §2, §3, §4\nAll samples were incubated for 24 hours at 37°C under aerobic conditions for all strains except for H. influenzae DSM 4690 which required anaerobiosis conditions. […]"}, "L. reuteri LMG P-27481": {"system": "L. reuteri LMG P-27481", "assay": "Tolerance test: vitality of L. reuteri LMG P-27481 in presence of resveratrol in simulated saliva", "type": "cell-based, Lactobacillus (Limosilactobacillus) reuteri", "protocol": "The simulated saliva (SS) was prepared with 8 g/l of sodium chloride, 0.19 g/l monobasic potassium phosphate, 2.38 g/l sodium phosphate (pH 6.8) and then sterilized (Alanzi et al., 2018). The cryopreserve stock of L. reuteri LMG P-27481 strain was controlled in order to verify the purity thereof and then cultivated on MRS Broth (De Man Rogosa Sharpe, Difco) under microaerophilic conditions at 37°C for 18 hours. The cultures in MRS broth of L. reuteri LMG P-27481 grown under microaerophilic conditions at 37°C for 18 hours were centrifuged, the supernatant discarded an the pellets were washed with sterile demineralized water. […] A test tube with only SS was used as positive control of survival. L. reuteri LMG P-27481 was analysed according to the standard of Mc Farland in order to obtain a vital load of 3×10^8 CFU/ml in the test tubes. […] Aliquots were collected after 5, 10, 30 and 60 minutes for determining vitality. All plates were incubated for 72 hours at 37°C under anaerobic conditions."}, "HaCat. cells": {"system": "HaCat. cells", "type": "cell-based", "source_text": "MTT test is a colorimetric assay which exploits the capability of cells to convert, at mitochondrial level, the bromide of 3-(4,5-dimethylthiazol-2-il)-2,5-diphenyltetrazolium in the related salt, by evaluating the cell viability. The produced salt is solubilized in organic solvent in order to obtain a homogeneous solution in the single well, measurable spectrophotometrically. Besides, the crystal violet assay is based upon the capability of the homonymous […] dye to bind to DNA of the cells in culture and to return in this way a reliable estimation of the number of cells. […] Before colouring, washings in PBS were carried out. 50 µL of dye (MTT (5 mg/mL in PBS); Crystal violet (2,5 mg/mL in MeOH 20%)) were then added to each well and left in incubation at 37°C for 2 hours (MTT) or stirred on tilting plate for 20 min (Crystal violet). The exceeding dye was washed and the dye was solubilized in organic solvent (DMSO) in order to obtain a homogenous solution in the single well, measurable spectrophotometrically. The measurement of absorbance of the single wells was performed in a plate reader, at the wavelength of 570 nm, by normalizing the values with respect to the control."}, "IL-37": {"system": "IL-37", "assay": "Gene expression by real-time PCR in 3D model of in vitro reconstituted skin (EpiDermFT)", "type": "cell-based", "settings": "vs control, after 24 hours", "source_text": "(§7) Evaluation of the gene expression of some cytokines (IL-25, IL-33, IL-37) and of filaggrin (FLG), involucrin (IVL) and loricrin (LOR) in a complex 3D model of in vitro reconstituted skin (EpiDermFT - MATTEK).\n(§8) The 3D models of in vitro reconstituted skin constitute optimum systems capable of simulating well the functionalities of a complex organ such as skin and the interactions which are established between numerous cell populations composing it. Then, they try to free from the excessive simplification represented by one single cell line put in culture. The cytokines IL-25 and IL-33 are pro-inflammatory cytokines over-produced by the keratinocytes and by the surface layers of the skin after an insult; on the contrary the cytokine IL-37 is an anti-inflammatory cytokine. At last, the proteins filaggrin (FLG), involucrin (IVL) and loricrin (LOR), are proteins produced by epidermis, fundamental in the constitution of the barrier which protects from external agents and respond to cytokine signals. In particular, during an inflammatory event, the expression of these genes is sub-regulated; on the contrary, an anti-inflammatory state tends to over-express the genes FLG, IVL, LOR.\n(§9) The extraction of total RNA was performed by QlAzol Lysis Reagent by following the instructions provided by the firm (Qiagen). The retro-transcription reactions were performed on 4 µg of total RNA by following the instructions provided by the protocol of the kit PROMEGA \"GoTaq 2 Step RT qPCR System\". The amplification for determining the gene expression, by real-time PCR technique, was performed on BioRad CFX96 machine and the related quantification was performed by the method of 2^-ΔΔCt."}, "filaggrin (FLG)": {"system": "filaggrin (FLG)", "assay": "Gene expression by real-time PCR in 3D model of in vitro reconstituted skin (EpiDermFT)", "type": "cell-based", "settings": "vs control", "source_text": "as §7, §8, §9"}, "involucrin (IVL)": {"system": "involucrin (IVL)", "assay": "Gene expression by real-time PCR in 3D model of in vitro reconstituted skin (EpiDermFT)", "type": "cell-based", "settings": "vs control", "source_text": "as §7, §8, §9"}, "loricrin (LOR)": {"system": "loricrin (LOR)", "assay": "Gene expression by real-time PCR in 3D model of in vitro reconstituted skin (EpiDermFT)", "type": "cell-based", "settings": "vs control", "source_text": "as §7, §8, §9"}},
  "data": [
    {"smiles": "O=C1O[C@H]([C@@H](O)CO)C(O)=C1O", "note": "[Ascorbic Acid]", "values": [
      {"measurement": "IC50", "setting": "[1]", "value": "665 ± 26", "unit": "µM"}
    ]},
    {"smiles": "Oc1ccc(/C=C/c2cc(O)cc(O)c2)cc1", "note": "[Resveratrol, 3,5,4'-trihydroxy-trans-stilbene]", "values": [
      {"measurement": "MIC", "setting": "[2]", "value": 80, "unit": "µg/mL"},
      {"measurement": "MIC", "setting": "[3]", "value": 160, "unit": "µg/mL"},
      {"measurement": "MIC", "setting": "[4]", "value": 160, "unit": "µg/mL"},
      {"measurement": "MIC", "setting": "[5]", "value": 80, "unit": "µg/mL"},
      {"measurement": "MIC", "setting": "[6]", "value": 160, "unit": "µg/mL"},
      {"measurement": "inhibiting concentrations", "setting": "all tested pathogens", "value": "80 to 160", "unit": "µg/mL"},
      {"measurement": "%S (% of survival of microorganisms)", "setting": "L. reuteri LMG P-27481; SS + 0.5 mg/ml Resveratrol, T5", "value": 99.9, "unit": "%"},
      {"measurement": "%S (% of survival of microorganisms)", "setting": "L. reuteri LMG P-27481; SS + 0.5 mg/ml Resveratrol, T10", "value": 99.6, "unit": "%"},
      {"measurement": "%S (% of survival of microorganisms)", "setting": "L. reuteri LMG P-27481; SS + 0.5 mg/ml Resveratrol, T30", "value": 99.3, "unit": "%"},
      {"measurement": "%S (% of survival of microorganisms)", "setting": "L. reuteri LMG P-27481; SS + 0.5 mg/ml Resveratrol, T60", "value": 99.2, "unit": "%"},
      {"measurement": "%S (% of survival of microorganisms)", "setting": "L. reuteri LMG P-27481; SS + 1 mg/ml Resveratrol, T5", "value": 99.8, "unit": "%"},
      {"measurement": "%S (% of survival of microorganisms)", "setting": "L. reuteri LMG P-27481; SS + 1 mg/ml Resveratrol, T10", "value": 99.6, "unit": "%"},
      {"measurement": "%S (% of survival of microorganisms)", "setting": "L. reuteri LMG P-27481; SS + 1 mg/ml Resveratrol, T30", "value": 99.6, "unit": "%"},
      {"measurement": "%S (% of survival of microorganisms)", "setting": "L. reuteri LMG P-27481; SS + 1 mg/ml Resveratrol, T60", "value": 99.4, "unit": "%"},
      {"measurement": "%S (% of survival of microorganisms)", "setting": "L. reuteri LMG P-27481; SS + 2.5 mg/ml Resveratrol, T5", "value": 99.9, "unit": "%"},
      {"measurement": "%S (% of survival of microorganisms)", "setting": "L. reuteri LMG P-27481; SS + 2.5 mg/ml Resveratrol, T10", "value": 99.6, "unit": "%"},
      {"measurement": "%S (% of survival of microorganisms)", "setting": "L. reuteri LMG P-27481; SS + 2.5 mg/ml Resveratrol, T30", "value": 99.5, "unit": "%"},
      {"measurement": "%S (% of survival of microorganisms)", "setting": "L. reuteri LMG P-27481; SS + 2.5 mg/ml Resveratrol, T60", "value": 99.2, "unit": "%"},
      {"measurement": "%S (% of survival of microorganisms)", "setting": "L. reuteri LMG P-27481; SS + 5 mg/ml Resveratrol, T5 (5 minutes contact), 3×10^8 CFU/ml", "value": 99.7, "unit": "%"},
      {"measurement": "%S (% of survival of microorganisms)", "setting": "L. reuteri LMG P-27481; SS + 5 mg/ml Resveratrol, T10", "value": 99.5, "unit": "%"},
      {"measurement": "%S (% of survival of microorganisms)", "setting": "L. reuteri LMG P-27481; SS + 5 mg/ml Resveratrol, T30", "value": 99.3, "unit": "%"},
      {"measurement": "%S (% of survival of microorganisms)", "setting": "L. reuteri LMG P-27481; SS + 5 mg/ml Resveratrol, T60", "value": 99.0, "unit": "%"},
      {"measurement": "%S (% of survival of microorganisms)", "setting": "L. reuteri LMG P-27481; SS + 5 mg/ml Resveratrol, T60, listed as resveratrol", "value": "higher than 99%"},
      {"measurement": "cell count (crystal violet)", "setting": "HaCat. cells", "value": "decrease in vitality and cell count"},
      {"measurement": "cell viability (MTT)", "setting": "HaCat. cells", "value": "decrease in vitality"},
      {"measurement": "expression of IL-37", "setting": "IL-37", "value": "under-expression"},
      {"measurement": "expression of FLG", "setting": "filaggrin (FLG)", "value": "minimum expression variations"},
      {"measurement": "expression of IVL", "setting": "involucrin (IVL)", "value": "minimum expression variations"},
      {"measurement": "expression of LOR", "setting": "loricrin (LOR)", "value": "minimum expression variations"}
    ]}
  ]
}
